Measurements reported in patent US12624004B2 (Fudan University, priority 2019, dated 2026).
Counter-ions that a name gives are not always drawn. Like-named read-outs stand apart in the source and are kept apart here.

Assays:
μ opioid receptor = target: T1, μ opioid receptor (Homo sapiens, UniProt P35372); experiment: Competition binding assay on membranes of CHO cells expressing μ opioid receptor, [3H]-labeled ligand; settings: for inhibition at 10 µM: Table 1-1, 10 μM concentration of compound, mean ± SD of three measurements, read-out: μOR Binding rate (%); for Ki: read-out: μOR Ki
T1 construct: expressed in transfected cells; host or cells: CHO cells (membranes)
Procedure: (§1) CHO cells expressing p opioid receptor, δ opioid receptor and κ opioid receptor were cultured in 10 cm^2 culture dishes (F-12 medium+10% neonatal bovine serum) for several days, and the culture fluid was aspirated after the cells had grown to the bottom of the dishes; 3 ml of PBS/EDTA solution (0.1M NaCl, 0.01M NaH2PO4, 0.04% EDTA) was added to digest the cells for 3-5 min. Add ice-cold homogenate (50 mM HEPES PH 7.4, 3 mM MgCl, 1 mM EGTA) to the centrifuge tube, transfer the solution and sediment to a homogenizer and homogenize; then transfer the homogenate to a centrifuge tube and centrifuge at 18000 rpm. Centrifuge for 15 min, two times; the obtained precipitate was homogenized with appropriate amount of 50 mM Tris-HCl, pH 7.4 buffer and divided into centrifuge tubes and stored at −70° C. in the refrigerator until use.
(§2) The total binding tube was spiked with 20-30 μg of the expressed membrane receptor protein and […] ligand (1-2 nM), the corresponding non-specific binding tube was spiked with 1 μM of the corresponding ligand, and the sample tubes were spiked with various screened opioid ligands in a final volume of […], incubated at 30° C. for 30 min, and the reaction was terminated in ice water. […] The samples were filtered under negative pressure through GF/C (whatman) glass fiber filter paper on a Millipore sample collector. The reaction was rinsed three times with 4 ml of 50 mMV Tris-HCl (pH 7.4), the filter paper was dried and placed in 0.5 ml Eppendorf tubes with 0.5 ml of lipophilic scintillation solution, the radioactivity was measured by PERKIN ELMER PRI-CARB 2910 liquid scintillation counter and the inhibition rate was calculated. Inhibition rate (or binding rate)=(total binding rate dpm−sample tube dpm)/(total binding tube dpm−non-specific binding tube dpm)×100%
(§3) IC50 was calculated using Prism 5.0 software. the Ki value was calculated as follows, Ki=IC50/(1+[IL]/Kd), [lL] is the concentration of the added labeled ligand and Kd is the equilibrium dissociation parameter of the labeled ligand.
(§4) CHO cells expressing p opioid receptor, δ opioid receptor and κ opioid receptor were cultured in a 10 cm^2 culture dish (F-12 medium+10% neonatal bovine serum) for several days, and the culture fluid was aspirated after the cells grew to the bottom of the dish. 3 mL PBS/EDTA solution (0.1 M NaCl, 0.01 M NaH2PO4, 0.04% EDTA) was added to digest the cells for 3˜5 min, blew with a pipette to completely dislodge the cells. The cells were collected in a 40 mL centrifuge tube, centrifuged at 5000 rpm for 5 min. The supernatant was removed and the ice-cold homogenate (50 mM HEPES pH 7.4, 3 mM MgCl2, 1 mM EGTA) was added to the centrifuge tube. The solution and the precipitate were transferred to a homogenizer. Then the homogenate was transferred to a centrifuge tube and centrifuged at 18000 rpm for 15 min. The precipitate was centrifuged twice at 18000 rpm for 15 min. The obtained precipitate was homogenized by adding appropriate amount of 50 mM Tris-HCl, pH 7.4 buffer and divided into centrifuge tubes and stored at −70° C. in the refrigerator until use.
(§5) The total binding tube was added with 20-30 μg of expressed membrane receptor protein and [3H]-labeled ligand (1-2 nM). The corresponding non-specific binding tube was added with 1 μM of the corresponding ligand, and the sample tubes were added with various screened opioid ligands in a final volume of 100 μL. All of them were incubated for 30 min at 30° C., and the reaction was terminated in ice water. The samples were filtered under negative pressure through GF/C (Whatman) glass fiber filter paper on a Millipore sample collector. The reaction was rinsed three times with 4 mL of 50 mM Tris-HCl (pH 7.4), the filter paper was dried and placed in 0.5 mL Eppendorf tubes with 0.5 mL of lipophilic scintillation solution. […]

δ opioid receptor = target: T2, δ opioid receptor (Homo sapiens, UniProt P41143); experiment: Competition binding assay on membranes of CHO cells expressing δ opioid receptor, [3H]-labeled ligand; settings: for inhibition at 10 µM / inhibition at 1 µM: 0.5 h; for inhibition at 10 µM: Table 1-1, 10 μM concentration of compound; for Ki: read-out: δOR Ki; for inhibition at 1 µM: 1 μM concentration of compound
T2 construct: expressed in transfected cells; host or cells: CHO cells (membranes)
Procedure: as §1, §2, §3, §4, §5

κ opioid receptor = target: T3, κ opioid receptor (Homo sapiens, UniProt P41145); experiment: Competition binding assay on membranes of CHO cells expressing κ opioid receptor, [3H]-labeled ligand; settings: for inhibition at 10 µM / inhibition at 1 µM: 0.5 h; for inhibition at 10 µM: 10 μM concentration of compound; for Ki: read-out: κOR Ki; for inhibition at 1 µM: 1 μM concentration of compound
T3 construct: expressed in transfected cells; host or cells: CHO cells (membranes)
Procedure: as §1, §2, §3, §4, §5

[1] = Table 1-1, read-out: κOR Binding rate (%)
[2] = Table 4-1, read-out: δOR Binding rate (%)
[3] = Table 4-1, read-out: κOR Binding rate (%)

`COc1cccc(C2(O)CCC(S(=O)(=O)Cc3ccccc3)CC2CN(C)C)c1` (stereo not drawn) [4-(Benzylsulfonyl)-2-((dimethylamino)methyl)-1-(3-methoxyphenyl) cyclohexane-1-ol hydrochloride] showed an inhibition at 10 µM (μ opioid receptor) of 98.6 ± 1.2%, an inhibition at 10 µM (δ opioid receptor; read-out: δOR Binding rate (%)) of 44 ± 7.85% and an inhibition at 10 µM (κ opioid receptor; [1]) of 47.7 ± 3.1%.
Compound `COc1cccc(C2(OC(=O)c3ccccc3)CCC(N(C)S(=O)(=O)Cc3ccccc3)CC2CN(C)C)c1` (stereo not drawn) has an inhibition at 10 µM (μ opioid receptor) of 81.2 ± 4.2%, an inhibition at 10 µM (δ opioid receptor; read-out: δOR Binding rate (%)) of 30.1 ± 14.9% and an inhibition at 10 µM (κ opioid receptor; [1]) of 35.7 ± 3%.
Work on `COc1cccc(C2(O)CCC(N(Cc3ccccc3)S(=O)(=O)c3cccc(Cl)c3)CC2CN(C)C)c1` (stereo not drawn) yielded an inhibition at 10 µM (μ opioid receptor) of 85.8 ± 3.2%, an inhibition at 10 µM (δ opioid receptor; read-out: δOR Binding rate (%)) of 5.1% and a Ki (κ opioid receptor; Table 1-1) of 9.81 ± 0.32 nM.
Work on `COc1cccc([C@]2(O)CCN(S(=O)(=O)Cc3ccccc3)C[C@H]2CN(C)C)c1` [(3R,4S)-1-(Benzylsulfonyl)-3-((dimethylamino)methyl)-4-(3-methoxyphenyl)piperidin-4-ol hydrochloride salt] yielded an inhibition at 0.1 µM (μ opioid receptor; Table 4-1 footnote a, 0.1 μM, read-out: μOR Inhibition rate) of 27.5 ± 1.54%, an inhibition at 0.1 µM (δ opioid receptor; Table 4-1 footnote a, 0.1 μM, read-out: δOR Inhibition rate) of 10.5 ± 3.7% and an inhibition at 0.1 µM (κ opioid receptor; Table 4-1 footnote a, 0.1 μM, read-out: κOR Inhibition rate) of 15.2 ± 1.56%.
`COc1cccc(C2(OC(=O)c3ccccc3)CCC(NS(=O)(=O)c3ccccc3)CC2CN(C)C)c1` (stereo not drawn) gave an inhibition at 10 µM (μ opioid receptor) of 80.9 ± 4.4%, an inhibition at 10 µM (δ opioid receptor; read-out: δOR Binding rate (%)) of 17.4 ± 2.5% and an inhibition at 10 µM (κ opioid receptor; [1]) of 51.5 ± 6.6%.
For `CN(C)C[C@H]1CN(S(=O)(=O)Cc2ccccc2)CC[C@]1(O)c1cccc(O)c1` [(3S,4R)-1-(Benzylsulfonyl)-3-((dimethylamino)methyl)-4-(3-hydroxyphenyl)piperidin-4-ol hydrochloride], the Ki (μ opioid receptor; Table 4-1) was 38.3 ± 1.18 nM, the Ki (δ opioid receptor; Table 4-1) was 1089 ± 9 nM and the Ki (κ opioid receptor; Table 4-1) was 231 ± 13.1 nM.
`CN(C)CC1CN(S(=O)(=O)Cc2ccccc2)CCC1(O)c1cccc(OC(F)(F)F)c1.Cl` (stereo not drawn) [hydrochloride] gave a Ki (μ opioid receptor; Table 2-1) of 64.5 ± 1.76 nM, an inhibition at 1 µM (δ opioid receptor; Table 2-1, read-out: δOR Binding rate (%)) of 40.8 ± 2.23% and an inhibition at 1 µM (κ opioid receptor; Table 2-1, read-out: κOR Binding rate (%)) of 21.4 ± 0.36%.
With `CN(C)C[C@H]1CN(C(=O)Cc2cc(F)c(F)cc2F)CC[C@]1(O)c1cccc(O)c1` the Ki (μ opioid receptor; Table 4-1) was 53.5 ± 0.09 nM, the Ki (δ opioid receptor; Table 4-1) was 3560 ± 96.5 nM and the Ki (κ opioid receptor; Table 4-1) was 42.3 ± 0.6 nM.
In the case of `COc1cccc(C2(OC(=O)c3ccccc3)CCC(N(C)S(=O)(=O)Cc3cccc(Cl)c3)CC2CN(C)C)c1` (stereo not drawn), the inhibition at 10 µM (μ opioid receptor) is reported as 89.8 ± 4.6%, the inhibition at 10 µM (δ opioid receptor; read-out: δOR Binding rate (%)) is reported as 4.8% and the inhibition at 10 µM (κ opioid receptor; [1]) is reported as 25.5 ± 6.1%.
`CN(C)C[C@@H]1CN(C(=O)Cc2cc(F)c(F)cc2F)CC[C@@]1(O)c1cccc(O)c1` gave a Ki (μ opioid receptor; Table 4-1) of 1.77 ± 0.18 nM, a Ki (δ opioid receptor; Table 4-1) of 178 ± 17.9 nM and a Ki (κ opioid receptor; Table 4-1) of 127 ± 1.6 nM.
`COc1cccc(C2(O)CCC(NS(=O)(=O)c3cccc(Cl)c3)CC2CN(C)C)c1` (stereo not drawn) was tested, and the inhibition at 10 µM (μ opioid receptor) was 79.7 ± 4.6%, the inhibition at 10 µM (δ opioid receptor; read-out: δOR Binding rate (%)) was 14.5 ± 5.8% and the inhibition at 10 µM (κ opioid receptor; [1]) was 35.9 ± 5.7%.
Compound `COc1cccc(C2(O)CCC(NS(=O)(=O)c3ccccc3)CC2CN(C)C)c1` (stereo not drawn) [N-(3-((Dimethylamino)methyl)-4-hydroxy-4-(3-methoxyphenyl)cyclohexyl) benzenesulfonamide hydrochloride] has an inhibition at 10 µM (μ opioid receptor) of 75.8 ± 4.1%, an inhibition at 10 µM (δ opioid receptor; read-out: δOR Binding rate (%)) of 38 ± 2.43% and an inhibition at 10 µM (κ opioid receptor; [1]) of 25.8 ± 7.9%.
Work on `COc1cccc(C2(O)CCN(C(=O)Cc3ccccc3Cl)CC2CN(C)C)c1` (stereo not drawn) [FWBE20, 2-(2-Chlorophenyl)-1-(3-((dimethylamino)methyl)-4-hydroxy-4-(3-methoxyphenyl)piperidin-1-yl)ethyl-1-one hydrochloride] yielded an inhibition at 1 µM (μ opioid receptor; 0.5 h, Table 5-1, 1 μM concentration of compound, read-out: μOR Combination rate (%)) of 28.3 ± 7.2%, an inhibition at 1 µM (δ opioid receptor; Table 5-1, read-out: δOR Combination rate (%)) of 0% and an inhibition at 1 µM (κ opioid receptor; Table 5-1, read-out: κOR Combination rate (%)) of 34.8 ± 0.7%.
Work on `COc1cccc(C2(OC(=O)c3ccccc3)CCC(NS(=O)(=O)c3cccc(Cl)c3)CC2CN(C)C)c1` (stereo not drawn) yielded an inhibition at 10 µM (μ opioid receptor) of 70.4 ± 3%, an inhibition at 10 µM (δ opioid receptor; read-out: δOR Binding rate (%)) of 18.8 ± 8.6% and an inhibition at 10 µM (κ opioid receptor; [1]) of 39 ± 5.5%.
In the case of `COc1cccc([C@@]2(O)CCN(C(=O)Cc3cc(F)c(F)cc3F)C[C@@H]2CN(C)C)c1`, the Ki (μ opioid receptor; Table 4-1) is reported as 2310 ± 234 nM, the inhibition at 1 µM (δ opioid receptor; [2]) is reported as 0% and the inhibition at 1 µM (κ opioid receptor; [3]) is reported as 23.4 ± 3.9%.
`COc1cccc(C2(OC(F)F)CCN(S(=O)(=O)Cc3ccccc3)CC2CN(C)C)c1.Cl` (stereo not drawn) [hydrochloride] showed an inhibition at 0.1 µM (μ opioid receptor; Table 2-1 footnote a, at 0.1 μM, read-out: μOR Inhibition rate or binding rate) of 22.6 ± 9.8%, an inhibition at 0.1 µM (δ opioid receptor; Table 2-1 footnote a, at 0.1 μM, read-out: δOR Inhibition rate or binding rate) of 0% and an inhibition at 0.1 µM (κ opioid receptor; Table 2-1 footnote a, at 0.1 μM, read-out: κOR Inhibition rate or binding rate) of 15.5 ± 4.1%.
`COc1cccc([C@]2(O)CCN(C(=O)Cc3cc(F)c(F)cc3F)C[C@H]2CN(C)C)c1` was tested, and the Ki (μ opioid receptor; Table 4-1) was 165 ± 22.3 nM, the inhibition at 1 µM (δ opioid receptor; [2]) was 26.6 ± 3.9% and the inhibition at 1 µM (κ opioid receptor; [3]) was 33 ± 4.1%.
For `COc1cccc(C2(O)CCC(N(Cc3ccccc3)S(=O)(=O)c3ccccc3)CC2CN(C)C)c1` (stereo not drawn), the inhibition at 10 µM (μ opioid receptor) was 70.5 ± 2.3%, the inhibition at 10 µM (δ opioid receptor; read-out: δOR Binding rate (%)) was 9.53% and the inhibition at 10 µM (κ opioid receptor; [1]) was 84.7 ± 2.1%.
